Data on 21 compounds can be found in patent publication US20240376121A1, “COMPOUNDS AND USES THEREOF” (Foghorn Therapeutics Inc., priority 2021, published 2024).

Test [1] addresses T1, HiBit-BRG1 fusion protein (Homo sapiens, UniProt P51532).
T1 construct: expressed in transfected cells
As to the kind of experiment: HiBiT-BRG1 cell-based degradation assay (Nano-Glo HiBiT Lytic Detection). Particulars: stable HeLa cell line expressing HiBit-BRG1 and LgBit, 24 h incubation; for Dmax: top dose 30 μM, read-out: BRG1 HiBit Degradation Maximum (%); for DC50: read-out: BRMG1 HiBit Degradation IC50. Here is the method:
(§1) Procedure: A stable HeLa cell line expressing HiBiT-BRM was generated. On day 0, 5000 cells were seeded in 40 μL of media into each well of 384-well cell culture plates. On day 1, cells were treated with 120 nL DMSO or 120 nL of 3-fold serially DMSO-diluted compounds (10 points in duplicate with 30 μM as final top dose). Subsequently plates were incubated for 24 h in a standard tissue culture incubator and equilibrated at room temperature for 15 minutes. Nano-Glo HiBiT Lytic Detection System (Promega N3050) reagent was freshly prepared and 20 ul was added to each well. Upon addition of this LgBit-containing reagent, the HiBiT and LgBiT proteins associate to form the luminescent NanoBiT luciferase. The plates were shaken for 10 minutes at room temperature and the bioluminescence read using an EnVision plate reader (PerkinElmer).
For measurement of BRG1 degradation, a stable HeLa cell line expressing HiBit-BRG1 and LgBit was generated. The same protocol as above was then followed.
(§2) The degradation % was calculated using the following formula: % degradation=100%−100%×(LumSample−LumLC)/(LumHC−LumLC). DMSO treated cells are employed as High Control (HC) and 2 μM of a known BRM/BRG1 degrader standard treated cells are employed as Low Control (LC).

Test [2] addresses T2, HiBit-BRM fusion protein (Homo sapiens, UniProt P51531).
T2 construct: expressed in transfected cells
Put plainly: HiBiT-BRM cell-based degradation assay (Nano-Glo HiBiT Lytic Detection). Particulars: stable HeLa cell line expressing HiBiT-BRM, 24 h incubation; for BRM HiBit Degradation Maximum (%): top dose 30 μM; for DC50: read-out: BRM HiBit Degradation IC50. The procedure: as §1, §2

T1 sequence (P51532 whole entry, the tested form may be a part): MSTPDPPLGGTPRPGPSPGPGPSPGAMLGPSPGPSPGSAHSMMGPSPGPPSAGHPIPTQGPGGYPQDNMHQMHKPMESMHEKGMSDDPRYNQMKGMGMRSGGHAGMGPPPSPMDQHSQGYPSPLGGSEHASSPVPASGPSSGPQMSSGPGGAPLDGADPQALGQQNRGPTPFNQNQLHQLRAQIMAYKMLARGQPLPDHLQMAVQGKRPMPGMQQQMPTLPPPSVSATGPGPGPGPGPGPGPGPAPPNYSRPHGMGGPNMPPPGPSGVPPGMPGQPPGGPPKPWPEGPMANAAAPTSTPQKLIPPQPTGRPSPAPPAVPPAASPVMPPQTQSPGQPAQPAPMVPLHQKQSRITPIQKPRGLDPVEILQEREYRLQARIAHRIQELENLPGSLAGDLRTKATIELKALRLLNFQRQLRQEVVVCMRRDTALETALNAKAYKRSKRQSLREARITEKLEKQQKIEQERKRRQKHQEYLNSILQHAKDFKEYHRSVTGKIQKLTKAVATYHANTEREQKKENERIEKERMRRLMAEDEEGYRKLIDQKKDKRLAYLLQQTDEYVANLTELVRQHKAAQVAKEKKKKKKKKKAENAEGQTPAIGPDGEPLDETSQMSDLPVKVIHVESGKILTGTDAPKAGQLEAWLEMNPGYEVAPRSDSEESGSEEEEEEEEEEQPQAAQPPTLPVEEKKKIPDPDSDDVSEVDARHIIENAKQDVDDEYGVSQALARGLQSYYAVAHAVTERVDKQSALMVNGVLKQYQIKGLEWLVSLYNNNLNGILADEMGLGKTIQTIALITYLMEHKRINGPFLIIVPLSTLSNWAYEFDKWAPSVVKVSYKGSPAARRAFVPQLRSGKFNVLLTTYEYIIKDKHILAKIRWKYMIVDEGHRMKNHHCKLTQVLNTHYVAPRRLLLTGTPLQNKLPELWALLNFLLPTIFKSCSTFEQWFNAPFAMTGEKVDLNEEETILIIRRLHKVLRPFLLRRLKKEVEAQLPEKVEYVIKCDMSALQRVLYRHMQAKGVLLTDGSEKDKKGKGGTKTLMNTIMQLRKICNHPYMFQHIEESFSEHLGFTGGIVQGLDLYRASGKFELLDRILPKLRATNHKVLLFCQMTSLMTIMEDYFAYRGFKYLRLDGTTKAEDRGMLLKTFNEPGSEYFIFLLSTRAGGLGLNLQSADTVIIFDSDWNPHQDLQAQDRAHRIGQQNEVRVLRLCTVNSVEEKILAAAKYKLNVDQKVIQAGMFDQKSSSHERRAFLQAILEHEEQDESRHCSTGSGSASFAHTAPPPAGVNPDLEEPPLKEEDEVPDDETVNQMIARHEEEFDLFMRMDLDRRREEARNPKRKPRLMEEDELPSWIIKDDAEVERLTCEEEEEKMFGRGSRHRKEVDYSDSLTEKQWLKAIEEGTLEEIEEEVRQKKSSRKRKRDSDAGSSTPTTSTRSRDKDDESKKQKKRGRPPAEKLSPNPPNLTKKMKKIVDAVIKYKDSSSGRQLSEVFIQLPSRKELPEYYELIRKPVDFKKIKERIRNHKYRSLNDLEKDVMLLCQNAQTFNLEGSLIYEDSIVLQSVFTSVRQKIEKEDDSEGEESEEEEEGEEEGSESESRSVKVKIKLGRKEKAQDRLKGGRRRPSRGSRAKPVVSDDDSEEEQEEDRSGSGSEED
T2 sequence (P51531 whole entry, the tested form may be a part): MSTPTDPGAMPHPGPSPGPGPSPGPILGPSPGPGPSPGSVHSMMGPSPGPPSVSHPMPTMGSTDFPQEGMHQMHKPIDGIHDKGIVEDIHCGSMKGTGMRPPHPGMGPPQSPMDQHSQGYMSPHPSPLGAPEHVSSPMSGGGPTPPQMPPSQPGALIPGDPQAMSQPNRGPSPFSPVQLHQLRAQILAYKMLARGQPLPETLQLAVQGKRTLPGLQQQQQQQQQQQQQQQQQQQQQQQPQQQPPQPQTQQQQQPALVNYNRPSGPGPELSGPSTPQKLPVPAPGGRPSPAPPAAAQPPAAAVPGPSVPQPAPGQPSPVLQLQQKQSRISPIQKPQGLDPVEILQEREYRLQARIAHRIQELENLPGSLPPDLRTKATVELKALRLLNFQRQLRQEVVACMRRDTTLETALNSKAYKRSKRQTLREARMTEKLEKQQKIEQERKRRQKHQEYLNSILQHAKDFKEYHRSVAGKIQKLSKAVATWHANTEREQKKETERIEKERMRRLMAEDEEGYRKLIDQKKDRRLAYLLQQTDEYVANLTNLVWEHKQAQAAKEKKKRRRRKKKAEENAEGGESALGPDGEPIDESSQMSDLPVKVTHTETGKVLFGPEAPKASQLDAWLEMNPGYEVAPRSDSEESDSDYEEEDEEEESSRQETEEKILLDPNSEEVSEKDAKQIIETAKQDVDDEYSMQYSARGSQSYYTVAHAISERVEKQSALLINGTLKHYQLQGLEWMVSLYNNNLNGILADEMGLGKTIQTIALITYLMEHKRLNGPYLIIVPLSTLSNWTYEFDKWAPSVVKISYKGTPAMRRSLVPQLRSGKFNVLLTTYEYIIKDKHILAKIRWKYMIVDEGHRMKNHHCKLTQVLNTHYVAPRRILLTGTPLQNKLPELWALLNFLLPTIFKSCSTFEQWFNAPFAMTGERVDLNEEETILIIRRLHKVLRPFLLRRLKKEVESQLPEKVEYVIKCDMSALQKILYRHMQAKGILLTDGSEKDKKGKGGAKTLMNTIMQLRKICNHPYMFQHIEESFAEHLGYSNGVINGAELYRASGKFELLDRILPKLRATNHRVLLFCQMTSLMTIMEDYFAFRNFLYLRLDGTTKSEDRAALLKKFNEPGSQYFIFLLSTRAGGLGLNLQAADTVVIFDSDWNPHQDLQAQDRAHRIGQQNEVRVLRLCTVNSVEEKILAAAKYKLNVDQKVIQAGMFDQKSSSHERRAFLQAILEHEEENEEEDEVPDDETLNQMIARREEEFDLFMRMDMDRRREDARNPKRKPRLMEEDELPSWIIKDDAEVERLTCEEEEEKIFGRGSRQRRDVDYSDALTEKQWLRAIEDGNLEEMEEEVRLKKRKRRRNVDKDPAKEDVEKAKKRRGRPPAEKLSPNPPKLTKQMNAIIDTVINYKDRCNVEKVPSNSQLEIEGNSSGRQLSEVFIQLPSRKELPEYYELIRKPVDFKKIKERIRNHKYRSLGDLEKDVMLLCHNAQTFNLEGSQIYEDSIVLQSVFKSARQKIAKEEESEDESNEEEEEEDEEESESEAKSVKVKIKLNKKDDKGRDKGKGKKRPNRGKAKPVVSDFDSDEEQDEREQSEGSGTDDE

Turning to `Cc1ncsc1-c1ccc([C@H](C)NC(=O)[C@@H]2C[C@@H](O)CN2C(=O)[C@@H](c2cc(N3CCC(C(=O)N4CCc5sc6nnc(-c7ccccc7O)cc6c5C4)CC3)no2)C(C)C)cc1` [Compound 11, (2S,4R)-4-hydroxy-1-((R)-2-(3-(4-(3-(2-hydroxyphenyl)-5,6,7,8-tetrahydropyrido[3′,4′:4,5]thieno[2,3-c]pyridazine-6-carbonyl)piperidin-1-yl)isoxazol-5-yl)-3-methylbutanoyl)-N—((S)-1-(4-(4-methylthiazol-5-yl)phenyl)ethyl)pyrrolidine-2-carboxamide], in test [1], the Dmax is below 50% and the DC50 was at least 1 µM. Besides, in test [2], the “BRM HiBit Degradation Maximum (%)” value was “A (“A” indicates maximum degradation ≥ 75%)” and the DC50 was at least 0.1 µM.
With `Cc1ncsc1-c1ccc([C@H](C)NC(=O)[C@@H]2C[C@@H](O)CN2C(=O)[C@H](c2cc(C3CCN(C(=O)CN4CC(c5cc6cc(-c7ccccc7O)nnc6s5)C4)CC3)no2)C(C)C)cc1` [Compound 12], in test [1], the Dmax was below 50% and the DC50 is at least 1 µM. Further, in test [2], the “BRM HiBit Degradation Maximum (%)” value is recorded as “C (“C” indicates maximum degradation < 50%)” and the DC50 is at least 1 µM.
On to `Cc1ncsc1-c1ccc([C@H](C)NC(=O)[C@@H]2C[C@@H](O)CN2C(=O)[C@@H](c2cc(C3CCN(C(=O)CN4CC(c5cc6cc(-c7ccccc7O)nnc6s5)C4)CC3)no2)C(C)C)cc1` [Compound 13], for which, in test [1], the Dmax is below 50% and the DC50 was at least 1 µM. For the same compound, in test [2], the “BRM HiBit Degradation Maximum (%)” value is on record as “B (“B” indicates maximum degradation ≥ 50%)” and the DC50 is at least 0.1 µM.
The corresponding values for `Cc1ncsc1-c1ccc([C@H](C)NC(=O)[C@@H]2C[C@@H](O)CN2C(=O)[C@@H](c2cc(OCCN3CC(c4c(C)sc5nnc(-c6ccccc6O)cc45)C3)no2)C(C)C)cc1` [Compound 14] are below 50%, at least 1 µM, “C (“C” indicates maximum degradation < 50%)” and at least 1 µM.
On to `Cc1ncsc1-c1ccc([C@@H](C)NC(=O)[C@H]2C[C@H](O)CN2C(=O)[C@H](c2cc(OCCN3C[C@@H]4[C@H](C3)[C@H]4c3sc4nnc(-c5ccccc5O)cc4c3C)no2)C(C)C)cc1` [Compound 15], for which, in test [1], the Dmax is below 50% and the DC50 is at least 1 µM. In test [2], the “BRM HiBit Degradation Maximum (%)” value is on record as “A (“A” indicates maximum degradation ≥ 75%)” and the DC50 is at least 0.01 µM.
Consider `Cc1ncsc1-c1ccc([C@H](C)NC(=O)[C@@H]2C[C@@H](O)CN2C(=O)[C@@H](c2cc(OCCN3CC(Cc4sc5nnc(-c6ccccc6O)cc5c4C)C3)no2)C(C)C)cc1` [Compound 16], for which, in test [1], the Dmax is below 50% and the DC50 is at least 1 µM. Moreover, in test [2], the “BRM HiBit Degradation Maximum (%)” value is reported as “A (“A” indicates maximum degradation ≥ 75%)” and the DC50 is at least 0.01 µM.
The corresponding values for `Cc1ncsc1-c1ccc(CNC(=O)[C@H]2C[C@H](O)CN2C(=O)[C@H](NC(=O)CCN2CC(c3sc4nnc(-c5ccccc5O)cc4c3C)C2)C(C)(C)C)cc1` [Compound 17] are below 50%, at least 1 µM, “C (“C” indicates maximum degradation < 50%)” and at least 1 µM.
On the same counts, the results for `Cc1ncsc1-c1ccc(CNC(=O)[C@@H]2C[C@@H](O)CN2C(=O)[C@@H](NC(=O)CCCCC(=O)N2CC(c3sc4nnc(-c5ccccc5O)cc4c3C)C2)C(C)(C)C)cc1` [Compound 18] are below 50%, at least 1 µM, “C (“C” indicates maximum degradation < 50%)” and at least 1 µM.
On to `Cc1ncsc1-c1ccc(CNC(=O)[C@@H]2C[C@@H](O)CN2C(=O)[C@@H](NC(=O)CCCC(=O)N2CC(c3sc4nnc(-c5ccccc5O)cc4c3C)C2)C(C)(C)C)cc1` [Compound 19], for which, in test [1], the Dmax was at least 75% and the DC50 is at least 1 µM. Moreover, in test [2], the “BRM HiBit Degradation Maximum (%)” value is reported as “A (“A” indicates maximum degradation ≥ 75%)” and the DC50 was at least 1 µM.
On to `Cc1ncsc1-c1ccc(CNC(=O)[C@H]2C[C@H](O)CN2C(=O)[C@H](NC(=O)CCC(=O)N2CC(c3sc4nnc(-c5ccccc5O)cc4c3C)C2)C(C)(C)C)cc1` [Compound 20], for which, in test [1], the Dmax is below 50% and the DC50 was at least 1 µM. Also, in test [2], the “BRM HiBit Degradation Maximum (%)” value is “C (“C” indicates maximum degradation < 50%)” and the DC50 is at least 1 µM.
As to `Cc1ncsc1-c1ccc([C@H](C)NC(=O)[C@@H]2C[C@@H](O)CN2C(=O)[C@@H](c2cc(OCCN3C[C@@H]4[C@H](C3)[C@H]4c3c(C)sc4nnc(-c5ccccc5O)cc34)no2)C(C)C)cc1` [Compound 21], in test [1], the Dmax was below 50% and the DC50 was at least 1 µM. Besides, in test [2], the “BRM HiBit Degradation Maximum (%)” value is reported as “C (“C” indicates maximum degradation < 50%)” and the DC50 is at least 1 µM.
With `Cc1ncsc1-c1ccc([C@H](C)NC(=O)[C@@H]2C[C@@H](O)CN2C(=O)[C@@H](c2cc(OCCN3CC(c4sc5nnc(-c6ccccc6O)cc5c4C)C3)no2)C(C)C)cc1` [Compound 22], in test [1], the Dmax is at least 50% and the DC50 is at least 0.01 µM. In test [2], the “BRM HiBit Degradation Maximum (%)” value was “A (“A” indicates maximum degradation ≥ 75%)” and the DC50 is at least 0.01 µM.
`Cc1ncsc1-c1ccc([C@@H](C)NC(=O)[C@H]2C[C@H](O)CN2C(=O)[C@H](c2cc(OCCN3CC(Cc4cc5cc(-c6ccccc6O)nnc5s4)C3)no2)C(C)C)cc1` [Compound 23]: in test [1], the Dmax was below 50% and the DC50 was at least 1 µM. Besides, in test [2], the “BRM HiBit Degradation Maximum (%)” value was “B (“B” indicates maximum degradation ≥ 50%)” and the DC50 is at least 0.1 µM.
As to `Cc1ncsc1-c1ccc(CNC(=O)[C@@H]2C[C@@H](O)CN2C(=O)[C@@H](NC(=O)CCN2CCC(c3cc4cc(-c5ccccc5O)nnc4s3)CC2)C(C)(C)C)cc1` [Compound 24], in test [1], the Dmax was below 50% and the DC50 was at least 1 µM. Moreover, in test [2], the “BRM HiBit Degradation Maximum (%)” value was “C (“C” indicates maximum degradation < 50%)” and the DC50 is at least 1 µM.
As to `Cc1ncsc1-c1ccc(CNC(=O)[C@@H]2C[C@@H](O)CN2C(=O)[C@@H](NC(=O)CCC(=O)N2CC(c3cc4cc(-c5ccccc5O)nnc4s3)C2)C(C)(C)C)cc1` [Compound 25], in test [1], the Dmax is below 50% and the DC50 is at least 1 µM. Further, in test [2], the “BRM HiBit Degradation Maximum (%)” value is on record as “C (“C” indicates maximum degradation < 50%)” and the DC50 was at least 1 µM.
As to `Cc1ncsc1-c1ccc(CNC(=O)[C@@H]2C[C@@H](O)CN2C(=O)[C@@H](NC(=O)CCN2CC(c3cc4cc(-c5ccccc5O)nnc4s3)C2)C(C)(C)C)cc1` [Compound 26], in test [1], the Dmax is below 50% and the DC50 was at least 1 µM. In test [2], the “BRM HiBit Degradation Maximum (%)” value is reported as “C (“C” indicates maximum degradation < 50%)” and the DC50 was at least 1 µM.
For the compound `Cc1ncsc1-c1ccc(CNC(=O)[C@@H]2C[C@@H](O)CN2C(=O)[C@@H](NC(=O)CCC(=O)N2CCC(c3cc4cc(-c5ccccc5O)nnc4s3)CC2)C(C)(C)C)cc1` [Compound 27], in test [1], the Dmax is below 50% and the DC50 was at least 1 µM. In addition, in test [2], the “BRM HiBit Degradation Maximum (%)” value is listed as “B (“B” indicates maximum degradation ≥ 50%)” and the DC50 is at least 1 µM.
For the compound `Cc1ncsc1-c1ccc(CNC(=O)[C@@H]2C[C@@H](O)CN2C(=O)[C@@H](NC(=O)CCCC(=O)N2CCC(c3cc4cc(-c5ccccc5O)nnc4s3)CC2)C(C)(C)C)cc1` [Compound 28], in test [1], the Dmax is below 50% and the DC50 was at least 1 µM. Moreover, in test [2], the “BRM HiBit Degradation Maximum (%)” value is reported as “B (“B” indicates maximum degradation ≥ 50%)” and the DC50 is at least 1 µM.
`Cc1ncsc1-c1ccc(CNC(=O)[C@@H]2C[C@@H](O)CN2C(=O)[C@@H](NC(=O)CCCCC(=O)N2CCC(c3cc4cc(-c5ccccc5O)nnc4s3)CC2)C(C)(C)C)cc1` [Compound 29]: in test [1], the Dmax is below 50% and the DC50 was at least 1 µM. In addition, in test [2], the “BRM HiBit Degradation Maximum (%)” value is on record as “C (“C” indicates maximum degradation < 50%)” and the DC50 is at least 1 µM.
Take `Cc1ncsc1-c1ccc(CNC(=O)[C@@H]2C[C@@H](O)CN2C(=O)[C@@H](NC(=O)CCCCC(=O)N2CC(c3cc4cc(-c5ccccc5O)nnc4s3)C2)C(C)(C)C)cc1` [Compound 30]: in test [1], the Dmax is below 50% and the DC50 is at least 1 µM. In test [2], the “BRM HiBit Degradation Maximum (%)” value is recorded as “C (“C” indicates maximum degradation < 50%)” and the DC50 was at least 1 µM.
As to `Cc1ncsc1-c1ccc(CNC(=O)[C@@H]2C[C@@H](O)CN2C(=O)[C@@H](NC(=O)CCCC(=O)N2CC(c3cc4cc(-c5ccccc5O)nnc4s3)C2)C(C)(C)C)cc1` [Compound 31], in test [1], the Dmax is below 50% and the DC50 is at least 1 µM. In test [2], the “BRM HiBit Degradation Maximum (%)” value is “C (“C” indicates maximum degradation < 50%)” and the DC50 is at least 0.1 µM.
